Source: patent US6737383B1, “Herbicidal oxadiazolidines” (priority 1999, dated 2004)

Assays:
giant foxtail = assay: Test B pre/postemergence giant foxtail; type: in vivo, Setaria faberii
Outline: (§1)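 Herbicidal effect was estimated by eye on a ten-point control scale after plants spent twelve to sixteen days in a greenhouse following soil or foliar treatment. Foliar sprays targeted plants at one to four leaves; all doses were formulated in a non-phytotoxic solvent with surfactant.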

morningglory = assay: Test B pre/postemergence morningglory; type: in vivo, Ipomoea hederacea
Outline: as §1

rice = assay: Test B flood test rice; type: in vivo, Oryza sativa
Outline: (§2)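 Each value is a visual injury score relative to controls, with 10 meaning complete control and 0 no effect. Evaluation took place twelve to sixteen days after the 2-leaf-stage plants were treated and kept in the greenhouse.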

duck salad = assay: Test B flood test duck salad; type: in vivo, Heteranthera limosa
Outline: as §2

sandbur = assay: Test D sandbur; type: in vivo, Cenchrus echinatus; conditions: Preemergence, 0 to 100 scale
Excerpt: Seeds, tubers, or plant parts of Alexandergrass (Brachiaria plantaginea), bermuda-grass (Cynodon dactylon), common pursiane (Portulaca oleracea), common ragweed (Ambrosia elatior), common groundsel (Senecio vulgaris), dallisgrass (Paspalum dilatatum), goosegrass (Eleusine indica), guineagrass (Panicum maximum), itchgrass (Rottboellia exaltata), Johnson grass (Sorghum halepense), large crabgrass (Digitaria sanguinalis), pitted morningglory (Ipomoea lacunosa), purple nutsedge (Cyperus rotundus), sandbur (Cenchrus echinatus), sourgrass (Trichachne insularis), Spanishneedles (Bidens bipinnata), surinam grass (Brachiaria decumbens) and tall mallow (Malva sylvestris) were planted into greenhouse pots of flats containing greenhouse planting medium. Plant species were grown in separate pots or individual compartments. Preemergence applications were made within one day of planting the seed or plant part.
Test chemicals were formulated in a non-phytotoxic solvent mixture which included a surfactant and applied preemergence to the surface of the pot containing seeds in a sandy loam soil. Untreated control pots and treated pots were placed in the greenhouse for growth and visually evaluated for injury 14 to 21 days after herbicide application. Plant response ratings, summarized in Table C, are based on a 0 to 100 scale where 0 is no injury and 100 is complete control. A dash (−) response means no test result.

winter wheat [1] = assay: Test E winter wheat; type: in vivo, Triticum aestivum; conditions: Postemergence
Outline: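 For postemergence, sowings are timed so plants reach the 1- to 4-leaf stage at spraying. Test compound is applied in a surfactant-containing solvent mixture that is non-phytotoxic. Response is judged by eye against untreated controls after approximately 21 to 28 days.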

blackgrass = assay: Test E blackgrass; type: in vivo, Alopecurus myosuroides; conditions: Preemergence
green foxtail = assay: Test E green foxtail; type: in vivo, Setaria viridis; conditions: Preemergence
Italian ryegrass = assay: Test E Italian ryegrass; type: in vivo, Lolium multiflorum; conditions: Preemergence
winter wheat [2] = assay: Test E winter wheat; type: in vivo, Triticum aestivum; conditions: Preemergence
wild oat = assay: Test E wild oat; type: in vivo, Avena fatua; conditions: Preemergence
winter barley = assay: Test E winter barley; type: in vivo, Hordeum vulgare; conditions: Preemergence
[3] = Postemergence, Rate 62 g/ha, scale 0 to 10, 0 is no effect, 10 is complete control
[4] = Postemergence, Rate 250 g/ha, scale 0 to 10, 0 no effect, 10 complete control
[5] = Preemergence, Rate 31 g/ha, visual rating, scale 0 to 10 (0 no effect, 10 complete control)
[6] = Preemergence, Rate 62 g/ha, scale 0 to 10, 0 is no effect, 10 is complete control
[7] = Preemergence, Rate 125 g/ha, scale 0 to 10 (0 no effect, 10 complete control)
[8] = Preemergence, Rate 250 g/ha, scale of 0 to 10 where 0 is no effect and 10 is complete control
[9] = Rate 31 g/ha, Postemergence, scale 0 to 10
[10] = Rate 125 g/ha, Postemergence, scale 0 to 10, 0 no effect, 10 complete control
[11] = Rate 125 g/ha, Postemergence section (flood test species), scale 0 to 10, 0 no effect, 10 complete control
[12] = Rate 500 g/ha, Postemergence section of Table B, 0 to 10 scale (0 no effect, 10 complete control)
[13] = flood test, listed under Postemergence, Rate 250 g/ha, scale 0 to 10, 0 no effect, 10 complete control
[14] = Rate 32 g/ha, 0 no injury, 100 complete control
[15] = Rate 64 g/ha, 0 no injury, 100 complete control
[16] = Rate 125 g/ha, 0 no injury, 100 complete control
[17] = Postemergence, Rate 125 g/ha, scale of 0 to 10 where 0 is no effect and 10 is complete control
[18] = Preemergence, Rate 62 g/ha, scale 0 to 10 (0 no effect, 10 complete control)
[19] = Preemergence, Rate 500 g/ha, scale 0 to 10 (0 no effect, 10 complete control)
[20] = Rate 62 g/ha, Postemergence, scale of 0 to 10 where 0 is no effect and 10 is complete control
[21] = Rate 500 g/ha, Postemergence, scale 0 to 10, 0 no effect, 10 complete control
[22] = Rate 250 g/ha, headed Pre-emergence (flood test species), scale 0 to 10 (0 no effect, 10 complete control)
[23] = Rate 500 g/ha, headed Pre-emergence (flood test species), scale 0 to 10 (0 no effect, 10 complete control)
[24] = Rate 1000 g/ha, Pre-emergence (as headed), scale 0 to 10
[25] = Rate 2000 g/ha, Pre-emergence (as headed), scale 0 to 10
[26] = Rate 31 g/ha, 0 to 100 scale, 0 no effect, 100 complete control
[27] = Rate 62 g/ha, 0 to 100 scale, 0 no effect, 100 complete control
[28] = Rate 125 g/ha, 0 to 100 scale (0 no effect, 100 complete control)
[29] = Preemergence, Rate 125 g/ha, 0 is no effect, 10 is complete control
[30] = Preemergence, Rate 250 g/ha, scale 0 to 10, 0 is no effect, 10 is complete control
[31] = Rate 250 g/ha, Postemergence, scale 0 to 10, 0 is no effect, 10 is complete control
[32] = Rate 500 g/ha, Postemergence, scale 0 to 10
[33] = Postemergence (flood test species), Rate 125 g/ha, scale of 0 to 10 where 0 is no effect and 10 is complete control
[34] = Rate 31 g/ha, Postemergence section (flood test species), scale 0 to 10
[35] = Rate 62 g/ha, Postemergence section, flood test species, scale of 0 to 10 where 0 is no effect and 10 is complete control
[36] = Rate 250 g/ha, Postemergence (flood test), scale 0 to 10, 0 is no effect, 10 is complete control
[37] = Rate 250 g/ha, Pre-emergence, flood-test species, scale 0 to 10, 0 is no effect, 10 is complete control

Cc1cccc(C)c1-n1c(=O)on(C(=O)N(c2ccc(F)cc2F)C(C)C)c1=O [Compound 28]
Giant foxtail plant response rating (giant foxtail; [3]): 1 | Giant foxtail plant response rating (giant foxtail; [4]): 4 | Giant foxtail plant response rating (giant foxtail; [5]): 0 | Plant response rating, Giant foxtail (giant foxtail; [6]): 2 | Plant response rating, Giant foxtail (giant foxtail; [7]): 5 | Plant response rating, Giant foxtail (giant foxtail; [8]): 7 | Giant foxtail plant response rating (giant foxtail; [9]): 1 | Giant foxtail plant response rating (giant foxtail; [10]): 2 | Morningglory plant response rating (morningglory; [3]): 2 | Morningglory plant response rating (morningglory; [4]): 2 | Morningglory plant response rating (morningglory; [5]): 0 | Plant response rating, Morningglory (morningglory; [6]): 0 | Plant response rating, Morningglory (morningglory; [7]): 0 | Plant response rating, Morningglory (morningglory; [8]): 0 | Morningglory plant response rating (morningglory; [9]): 0 | Morningglory plant response rating (morningglory; [10]): 2 | Rice plant response rating (rice; [3]): 0 | Rice plant response rating (rice; [11]): 0 | Rice plant response rating (rice; [12]): 3 | Rice plant response rating (rice; [13]): 2 | Ducksalad plant response rating (duck salad; [3]): 0 | Ducksalad plant response rating (duck salad; [11]): 0 | Ducksalad plant response rating (duck salad; [12]): 4 | Ducksalad plant response rating (duck salad; [13]): 0 | Plant response rating, Sandbur (sandbur; [14]): 0 | Sandbur plant response rating (sandbur; [15]): 0 | Sandbur plant response rating (sandbur; [16]): 0 | Plant response rating, Sandbur (sandbur; Rate 250 g/ha): 0

CCn1c(=O)on(C(=O)N(c2ccc(F)cc2)C(C)C)c1=O [Compound 107]
Giant foxtail plant response rating (giant foxtail; [17]): 8 | Giant foxtail plant response rating (giant foxtail; [4]): 8 | Giant foxtail plant response rating (giant foxtail; [18]): 10 | Plant response rating, Giant foxtail (giant foxtail; [7]): 10 | Plant response rating, Giant foxtail (giant foxtail; [8]): 10 | Giant foxtail plant response rating (giant foxtail; [19]): 10 | Giant foxtail plant response rating (giant foxtail; [20]): 8 | Giant foxtail plant response rating (giant foxtail; [21]): 8 | Morningglory plant response rating (morningglory; [17]): 3 | Morningglory plant response rating (morningglory; [4]): 3 | Morningglory plant response rating (morningglory; [18]): 0 | Plant response rating, Morningglory (morningglory; [7]): 0 | Plant response rating, Morningglory (morningglory; [8]): 2 | Morningglory plant response rating (morningglory; [19]): 7 | Morningglory plant response rating (morningglory; [20]): 3 | Morningglory plant response rating (morningglory; [21]): 3 | Rice plant response rating (rice; [22]): 0 | Plant response rating, Rice (rice; [23]): 0 | Rice plant response rating (rice; [24]): 0 | Rice plant response rating (rice; [25]): 0 | Ducksalad plant response rating (duck salad; [22]): 0 | Plant response rating, Ducksalad (duck salad; [23]): 0 | Ducksalad plant response rating (duck salad; [24]): 0 | Ducksalad plant response rating (duck salad; [25]): 0 | Plant response rating, Sandbur (sandbur; Rate 16 g/ha, 0 no injury, 100 complete control): 30 | Plant response rating, Sandbur (sandbur; [14]): 30 | Sandbur plant response rating (sandbur; [15]): 65 | Sandbur plant response rating (sandbur; [16]): 98 | Plant response rating, Sandbur (sandbur; Rate 250 g/ha): 100 | Plant response rating, Sandbur (sandbur; Rate 500 g/ha): 100 | Plant response rating, Wheat (winter) (winter wheat [1]; [26]): 50 | Plant response rating, Wheat (winter) (winter wheat [1]; Rate 62 g/ha, 0 to 100 scale): 40 | Plant response rating, Wheat (winter) (winter wheat [1]; Rate 125 g/ha, 0 to 100 scale): 30 | Plant response rating, Wheat (winter) (winter wheat [1]; Rate 250 g/ha, 0 to 100 scale (0 no effect, 100 complete control)): 0 | Plant response rating, Blackgrass (blackgrass; [26]): 30 | Plant response rating, Blackgrass (blackgrass; [27]): 60 | Plant response rating, Blackgrass (blackgrass; [28]): 85 | Plant response rating, Blackgrass (blackgrass; Rate 250 g/ha, 0 to 100 scale): 80 | Plant response rating, Green foxtail (green foxtail; [26]): 55 | Plant response rating, Green foxtail (green foxtail; [27]): 80 | Plant response rating, Green foxtail (green foxtail; [28]): 100 | Plant response rating, Green foxtail (green foxtail; Rate 250 g/ha, 0 to 100 scale): 95 | Plant response rating, I. Ryegrass (Italian ryegrass; [26]): 40 | Plant response rating, I. Ryegrass (Italian ryegrass; [27]): 55 | Plant response rating, I. Ryegrass (Italian ryegrass; [28]): 98 | Plant response rating, I. Ryegrass (Italian ryegrass; Rate 250 g/ha, 0 to 100 scale): 95 | Plant response rating, Wheat (winter) (winter wheat [2]; [26]): 0 | Plant response rating, Wheat (winter) (winter wheat [2]; [27]): 50 | Plant response rating, Wheat (winter) (winter wheat [2]; [28]): 30 | Plant response rating, Wheat (winter) (winter wheat [2]; Rate 250 g/ha, 0 to 100 scale): 40 | Plant response rating, Wild oat (wild oat; [26]): 20 | Plant response rating, Wild oat (wild oat; [27]): 50 | Plant response rating, Wild oat (wild oat; [28]): 60 | Plant response rating, Barley (winter) (winter barley; [26]): 10 | Plant response rating, Barley (winter) (winter barley; [27]): 20 | Plant response rating, Barley (winter) (winter barley; [28]): 20 | Plant response rating, Barley (winter) (winter barley; Rate 250 g/ha, 0 to 100 scale): 15

C=C(C)Cn1c(=O)on(C(=O)N(c2ccc(F)cc2)C(C)C)c1=O [Compound 139]
Giant foxtail plant response rating (giant foxtail; [17]): 8 | Giant foxtail plant response rating (giant foxtail; [18]): 10 | Giant foxtail plant response rating (0 to 10 scale) (giant foxtail; [29]): 10 | Giant foxtail plant response rating (giant foxtail; [30]): 10 | Giant foxtail plant response rating (giant foxtail; [19]): 10 | Giant foxtail plant response rating (giant foxtail; [20]): 6 | Plant response rating, Giant foxtail (giant foxtail; [31]): 9 | Giant foxtail plant response rating (giant foxtail; [32]): 9 | Morningglory plant response rating (morningglory; [17]): 5 | Morningglory plant response rating (morningglory; [18]): 0 | Morningglory plant response rating (0 to 10 scale) (morningglory; [29]): 0 | Morningglory plant response rating (morningglory; [30]): 0 | Morningglory plant response rating (morningglory; [19]): 0 | Morningglory plant response rating (morningglory; [20]): 3 | Plant response rating, Morningglory (morningglory; [31]): 6 | Morningglory plant response rating (morningglory; [32]): 9 | Rice plant response rating (rice; [33]): 0 | Rice plant response rating (rice; [34]): 0 | Rice plant response rating (rice; [35]): 0 | Plant response rating, Rice (rice; [36]): 0 | Rice plant response rating (rice; [37]): 0 | Plant response rating, Rice (rice; [23]): 0 | Rice plant response rating (rice; [24]): 0 | Rice plant response rating (rice; [25]): 0 | Ducksalad plant response rating (duck salad; [33]): 0 | Ducksalad plant response rating (duck salad; [34]): 0 | Ducksalad plant response rating (duck salad; [35]): 0 | Plant response rating, Ducksalad (duck salad; [36]): 0 | Ducksalad plant response rating (duck salad; [37]): 0 | Plant response rating, Ducksalad (duck salad; [23]): 0 | Ducksalad plant response rating (duck salad; [24]): 0 | Ducksalad plant response rating (duck salad; [25]): 2 | Sandbur plant response rating (sandbur; [15]): 40
